Measured values published in patent US6861441B1, “Use of EP4 receptor ligands in the treatment of neuropathic pain and colon cancer” (SmithKline Beecham Corporation, priority 1999, dated 2005).

Tests used:
human EP4 receptors = target: T1, human EP4 receptors (Homo sapiens, UniProt P35408); experiment: Human EP4 Scintillation Proximity Assay (SPA), [3H]-prostaglandin E2 competition binding
T1 construct: expressed in transfected cells; host or cells: Chinese Hamster Ovary (CHO) cells infected with Semliki Forest Virus carrying an SFV-1 RNA construct with the hEP4 receptor; membranes were prepared from these cells
T1 sequence (P35408 whole entry): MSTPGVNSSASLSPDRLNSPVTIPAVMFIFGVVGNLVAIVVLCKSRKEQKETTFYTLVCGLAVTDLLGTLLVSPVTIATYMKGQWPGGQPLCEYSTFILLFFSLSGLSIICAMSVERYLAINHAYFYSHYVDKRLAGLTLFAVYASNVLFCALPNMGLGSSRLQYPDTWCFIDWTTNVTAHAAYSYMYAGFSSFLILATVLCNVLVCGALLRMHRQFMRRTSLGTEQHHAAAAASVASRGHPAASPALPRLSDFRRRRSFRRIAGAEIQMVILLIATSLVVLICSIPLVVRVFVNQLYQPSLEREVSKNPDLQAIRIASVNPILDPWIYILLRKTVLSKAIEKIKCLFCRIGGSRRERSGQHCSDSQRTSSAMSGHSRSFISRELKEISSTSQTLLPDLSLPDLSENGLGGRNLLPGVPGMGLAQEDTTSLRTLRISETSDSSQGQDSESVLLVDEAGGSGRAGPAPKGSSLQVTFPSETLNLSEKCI
Protocol: Quantification of radioligand binding by scintillation proximity assay (SPA) is a long-established principle. Briefly, the affinity of compounds for a receptor is assessed by the specific competition between known quantities of radiolabelled ligand and compound for that receptor. Increasing concentrations of compound reduce the amount of radiolabel that binds to the receptor. This gives rise to a diminishing scintillation signal from SPA beads coated with membranes that bear the receptor. The signal may be detected with a suitable scintillation counter and the data generated may be analysed with suitable curve-fitting software.
The human EP4 SPA assay (hereafter referred to as ‘the assay’) utilises membranes prepared from Chinese Hamster Ovary (CHO cells) infected with Semliki Forest Virus (SFV). […]
For assay, membranes expressing human EP4 receptors are diluted in a pH-buffered medium and mixed with SPA beads coated with a suitable substance to facilitate the adhesion of membranes to the beads. […] Nonspecific binding (nsb) may be determined by competition between the radiolabelled ligand and a saturating concentration of unlabelled ligand. In order to quantify the affinity of EP4 receptor ligands, compounds are diluted in a stepwise manner across the wells of a 96-well plate. […] The affinity (pKi) of the compound may be calculated from the IC50 by application of the Cheng-Prusoff correction. […]

[1] = tested on: CCI-induced neuropathic hypersensitivity in male random hooded rats; experiment: Chronic constriction injury (CCI) model of neuropathic hypersensitivity, paw withdrawal threshold; type: in vivo, rat; details: 10 mgkg-1 b.i.d. PO
Source text: Under isoflurane anaesthesia, the common left sciatic nerve was exposed at mid thigh level and four loose ligatures of Chromic gut tied around it. The wound was then closed and secured using suture clips. The surgical procedure was identical for the sham operated animals except the sciatic nerve was not ligated. The rats were allowed a period of seven days to recover from the surgery before behavioural testing began.

CCOc1c2c(c(OCC)c3ccccc13)C(=O)N(c1ccc(CC(=O)O)cc1)C2 [IF, [4-(4,9-diethoxy-1-oxo-1,3-dihydro-2H-benzo[f]isoindol-2-yl)phenyl]acetic Acid]
Ki (human EP4 receptors): 0.1 µM
time of chronic dosing until reversal became apparent ([1]; days 20-33 postoperative): 3 days
time of chronic dosing until reversal was maximal ([1]; days 20-33 postoperative): 1 week
effect on CCI-induced decrease in paw withdrawal threshold ([1]; dosed chronically for 14 days (days 20-33 postoperative)): reversal of the CCI-induced decrease in paw withdrawal threshold
paw withdrawal threshold following cessation of the drug treatment ([1]; after the 14-day dosing period): returned to that of the vehicle treated CCI-operated animals
